Source: patent US10683297B2 (Sunshine Lake Pharma Co., Ltd., priority 2017, dated 2020)

Tests used:
Assay type in all cases: biochemical
Settings in all cases: [γ-33P-ATP] 10 μM or KM values; 40 minutes at room temperature
JAK2 (h) = target: T1, JAK2 (h) (Homo sapiens, UniProt O60674); assay: JAK2 (h) kinase assay
T1 construct: purchased Millipore UK Ltd (assays performed there as a service)
Protocol: Kinase assays can be performed by measurement of incorporation of γ-^33P ATP into immobilized myelin basic protein (MBP). High binding white 384 well plates (Greiner) are coated with MBP (Sigma # M-1891) by incubation of 60 μL well of 20 μg/mL MBP in Tris-buffered saline (TBS; 50 mM Tris pH 8.0, 138 mM NaCl, 2.7 mM KCl) for 24 h at 4° C. Plates are washed 3× with 100 μL TBS. Kinase reactions are carried out in a total volume of 34 μL in kinase buffer (according to the need to make, for example, 5 mM Hepes pH 7.6, 15 mM NaCl, 0.01% bovine gamma globulin (Sigma #1-5506), 10 mM MgCl2, 1 mM DTT, 0.02% TritonX-100). Compound dilutions are performed in DMSO and added to assay wells to a final DMSO concentration of 1%. Each data point is measured in duplicate, and at least two duplicate assays are performed for each individual compound determination. Enzyme is added to final concentrations of 10 nM or 20 nM, for example. A mixture of unlabeled ATP and γ-^33P ATP is added to start the reaction (2×10^6 cpm of γ-^33P ATP per well (3000 Ci/mmole) and 10 μM unlabeled ATP, typically. The reactions are carried out for 1 hour at room temperature with shaking. Plates are washed 7× with TBS, followed by the addition of 50 μL well scintillation fluid (Wallac). Plates are read using a Wallac Trilux counter. This is only one format of such assays; various other formats are possible, as known to one skilled in the art.
(§1) The above assay procedure can be used to determine the IC50 for inhibition and/or the inhibition constant, Ki. […] The IC50 value is estimated by preparing a 10 point curve using a ½ log dilution series (for example, a typical curve may be prepared using the following compound concentrations: 3 μM, 1 μM, 0.3 μM, 0.1 μM, 0.03 μM, 0.01 μM, 0.003 μM, 0.001 μM, 0.0003 μM and 0 μM).
JAK2 (h) is incubated with 8 mM MOPS pH 7.0, 0.2 mM EDTA, 100 μM […], 10 mM MgAcetate and [γ-^33P-ATP] […] The reaction is initiated by the addition of the MgATP mix. After incubation for 40 minutes at room temperature, the reaction is stopped by the addition of 3% phosphoric acid solution. 10 μL of the reaction is then spotted onto a P30 filtermat and washed three times for 5 minutes in 75 mM phosphoric acid and once in methanol prior to drying and scintillation counting.
(§2) The kinase assays described herein were performed at Millipore UK Ltd, Dundee Technology Park, Dundee DD2 1SW, UK.

Aurora-B (h) = target: T2, Aurora-B (h) (Homo sapiens, UniProt Q96GD4); assay: Aurora-B (h) kinase assay
T2 construct: purchased Millipore UK Ltd (assays performed there as a service)
Protocol: as §1
Aurora-B (h) is incubated with 8 mM MOPS pH 7.0, 0.2 mM EDTA, 30 μM […], 10 mM MgAcetate and [γ-^33PATP] […] The reaction is initiated by the addition of the MgATP mix. After incubation for 40 minutes at room temperature, the reaction is stopped by the addition of a 3% phosphoric acid solution. 10 μL of the reaction is then spotted onto a P30 filtermat and washed three times for 5 minutes in 75 mM phosphoric acid and once in methanol prior to drying and scintillation counting.
as §2

Aurora-A (h) = target: T3, Aurora-A (h) (Homo sapiens, UniProt O14965); assay: Aurora-A (h) kinase assay
T3 construct: purchased Millipore UK Ltd (assays performed there as a service)
T3 sequence (O14965 1-403): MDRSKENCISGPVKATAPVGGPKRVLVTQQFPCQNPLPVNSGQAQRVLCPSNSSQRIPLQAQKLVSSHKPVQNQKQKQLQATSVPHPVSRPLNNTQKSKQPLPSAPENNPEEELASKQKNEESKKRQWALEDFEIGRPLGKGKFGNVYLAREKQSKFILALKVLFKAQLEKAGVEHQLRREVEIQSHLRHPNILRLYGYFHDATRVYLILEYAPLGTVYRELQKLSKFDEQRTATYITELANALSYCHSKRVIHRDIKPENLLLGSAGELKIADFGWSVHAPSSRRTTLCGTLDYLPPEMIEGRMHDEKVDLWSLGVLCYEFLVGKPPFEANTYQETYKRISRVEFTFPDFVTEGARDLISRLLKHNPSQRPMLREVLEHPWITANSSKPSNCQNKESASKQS
Protocol: as §1
Aurora-A (h) is incubated with 8 mM MOPS pH 7.0, 0.2 mM EDTA, 200 μM LRRASLG (Kemptide), 10 mM MgAcetate and [γ-^33P-ATP] […] The reaction is initiated by the addition of the MgATP mix. After incubation for 40 minutes at room temperature, the reaction is stopped by the addition of 3% phosphoric acid solution. 10 μL of the reaction is then spotted onto a P30 filtermat and washed three times for 5 minutes in 75 mM phosphoric acid and once in methanol prior to drying and scintillation counting.
as §2

T2 sequence (Q96GD4 whole entry): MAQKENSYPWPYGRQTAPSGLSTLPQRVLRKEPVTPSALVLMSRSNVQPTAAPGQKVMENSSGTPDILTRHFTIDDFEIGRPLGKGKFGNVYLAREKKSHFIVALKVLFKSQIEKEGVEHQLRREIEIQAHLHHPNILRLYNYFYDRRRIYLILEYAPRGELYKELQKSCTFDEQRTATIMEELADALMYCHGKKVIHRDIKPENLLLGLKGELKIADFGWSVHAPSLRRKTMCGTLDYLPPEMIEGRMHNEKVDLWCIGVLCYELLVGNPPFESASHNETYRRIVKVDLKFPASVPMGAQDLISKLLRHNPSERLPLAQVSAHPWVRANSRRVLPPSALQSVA
T1 sequence (O60674 whole entry): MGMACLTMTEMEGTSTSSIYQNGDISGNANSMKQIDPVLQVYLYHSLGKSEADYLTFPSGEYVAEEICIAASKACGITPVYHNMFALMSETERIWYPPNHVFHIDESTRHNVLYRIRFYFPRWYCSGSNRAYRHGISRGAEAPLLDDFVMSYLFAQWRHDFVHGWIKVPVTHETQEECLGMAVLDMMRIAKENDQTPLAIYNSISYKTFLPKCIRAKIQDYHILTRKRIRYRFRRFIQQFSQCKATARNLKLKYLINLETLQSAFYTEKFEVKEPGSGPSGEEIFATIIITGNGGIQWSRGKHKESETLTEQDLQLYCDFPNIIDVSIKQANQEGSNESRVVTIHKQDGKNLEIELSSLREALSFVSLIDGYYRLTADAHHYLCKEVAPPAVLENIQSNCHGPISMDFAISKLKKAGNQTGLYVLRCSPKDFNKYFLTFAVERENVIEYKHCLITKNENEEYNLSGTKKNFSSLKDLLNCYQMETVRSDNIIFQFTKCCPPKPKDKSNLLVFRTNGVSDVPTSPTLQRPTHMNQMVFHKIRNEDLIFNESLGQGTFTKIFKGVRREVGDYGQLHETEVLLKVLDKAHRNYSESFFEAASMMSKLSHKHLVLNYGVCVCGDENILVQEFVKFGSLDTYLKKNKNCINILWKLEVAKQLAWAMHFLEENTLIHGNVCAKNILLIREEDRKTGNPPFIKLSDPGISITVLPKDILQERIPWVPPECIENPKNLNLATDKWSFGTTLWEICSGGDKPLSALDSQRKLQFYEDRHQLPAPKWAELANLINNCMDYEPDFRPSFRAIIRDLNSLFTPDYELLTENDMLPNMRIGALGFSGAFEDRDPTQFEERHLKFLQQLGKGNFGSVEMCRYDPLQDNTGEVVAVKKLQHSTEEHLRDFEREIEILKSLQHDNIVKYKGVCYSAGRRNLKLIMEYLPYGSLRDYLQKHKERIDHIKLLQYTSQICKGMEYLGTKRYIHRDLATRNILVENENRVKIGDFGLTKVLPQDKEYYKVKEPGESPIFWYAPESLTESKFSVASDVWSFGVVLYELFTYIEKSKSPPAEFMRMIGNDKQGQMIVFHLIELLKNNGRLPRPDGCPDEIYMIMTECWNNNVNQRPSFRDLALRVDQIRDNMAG

Structure (SMILES)	IC50 (JAK2 (h))	IC50 (Aurora-B (h))	IC50 (Aurora-A (h))
CCC1CN(c2ccc(C#N)cn2)CCC1Nc1nc(Nc2ccn3c(C)cnc3c2)ncc1Cl (stereo not shown) [Example 2, 6-(4-((5-chloro-2-((3-methylimidazo[1,2-a]pyridin-7-yl)amino)pyrimidin-4-yl)amino)-3-ethylpiperidin-1-yl)nicotinonitrile]	3 nM	46 nM	
CCC1CN(c2ccc(C#N)nn2)CCC1Nc1nc(Nc2ccn3c(C)cnc3c2)ncc1Cl (stereo not shown) [Example 3, 6-(4-((5-chloro-2-((3-methylimidazo[1,2-a]pyridin-7-yl)amino)pyrimidin-4-yl)amino)-3-ethylpiperidin-1-yl)pyridazine-3-carbonitrile]	2 nM	102 nM	
Cc1cnc2cc(Nc3ncc(Cl)c(NC4CCN(c5ccc(C#N)nn5)CC4)n3)ccn12 [Example 12, 6-(4-((5-chloro-2-((3-methylimidazo[1,2-a]pyridin-7-yl)amino)pyrimidin-4-yl)amino)piperidin-1-yl)pyridazine-3-carbonitrile]	16 nM	115 nM	281 nM
N#Cc1ccc(N2CCC(Nc3nc(Nc4ccn5c(C(F)F)nnc5c4)ncc3Cl)CC2)nc1 [Example 30, 6-(4-((5-chloro-2-((3-(difluoromethyl)-[1,2,4]triazolo[4,3-a]pyridin-7-yl)amino)pyrimidin-4-yl)amino)piperidin-1-yl)nicotinonitrile]	10 nM		630 nM
Cc1nc2cc(Nc3ncc(Cl)c(NC4CCN(c5ccc(C#N)cn5)CC4)n3)ccn2n1 [Example 32, 6-(4-((5-chloro-2-((2-methyl-[1,2,4]triazolo[1,5-a]pyridin-7-yl)amino)pyrimidin-4-yl)amino)piperidin-1-yl)nicotinonitrile]	7 nM		662 nM
CC(C)(O)c1nc2cc(Nc3ncc(Cl)c(NC4CCN(c5ccc(C#N)cn5)CC4)n3)ccn2n1 [Example 39, 6-(4-((5-chloro-2-((2-(2-hydroxypropan-2-yl)-[1,2,4]triazolo[1,5-a]pyridin-7-yl)amino)pyrimidin-4-yl)amino)piperidin-1-yl)nicotinonitrile]	5 nM		708 nM
CC(C)(O)c1nnc2cc(Nc3ncc(Cl)c(NC4CCN(c5ccc(C#N)cn5)CC4)n3)ccn12 [Example 40]	1 nM		119 nM
Cn1cnc2cc(Nc3ncc(Cl)c(NC4CCN(c5ccc(C#N)cn5)CC4)n3)ccc21 [Example 46, 6-(4-((5-chloro-2-((1-methyl-1H-benzo[d]imidazol-5-yl)amino)pyrimidin-4-yl)amino)piperidin-1-yl)nicotinonitrile]	1 nM		187 nM
Cn1nnc2cc(Nc3ncc(Cl)c(NC4CCN(c5ccc(C#N)nn5)CC4)n3)ccc21 [Example 47, 6-(4-((5-chloro-2-((l-methyl-1H-benzo[d][1,2,3]triazol-5-yl)amino)pyrimidin-4-yl)amino)piperidin-1-yl)pyridazine-3-carbonitrile]	7 nM		116 nM
Cc1nc2cc(Nc3ncc(Cl)c(NC4CCN(c5ccc(C#N)cn5)CC4)n3)ccc2n1C [Example 48, 6-(4-((5-chloro-2-((1,2-dimethyl-1H-benzo[d]imidazol-5-yl)amino)pyrimidin-4-yl)amino)piperidin-1-yl)nicotinonitrile]	0.7 nM		315 nM

Further lines, results first:

IC50 (JAK2 (h))	IC50 (Aurora-B (h))	IC50 (Aurora-A (h))	Structure (SMILES)
14 nM	200 nM	> 300 nM	CC(C)(O)c1nc2cc(Nc3ncc(Cl)c(NC4CCN(c5ccc(C#N)nn5)CC4)n3)ccn2n1 [Example 55, 6-(4-((5-chloro-2-((2-(2-hydroxypropan-2-yl)-[1,2,4]triazolo[1,5-a]pyridin-7-yl)amino)pyrimidin-4-yl)amino)piperidin-1-yl)pyridazine-3-carbonitrile]
15 nM		> 300 nM	CC(O)Cc1nc2cc(Nc3ncc(Cl)c(NC4CCN(c5ccc(C#N)nn5)CC4)n3)ccn2n1 (stereo not shown) [Example 56, 6-(4-((5-chloro-2-((2-(2-hydroxypropyl)-[1,2,4]triazolo[1,5-a]pyridin-7-yl)amino)pyrimidin-4-yl)amino)piperidin-1-yl)pyridazine-3-carbonitrile]
4 nM	216 nM	216 nM	N#Cc1ccc(N2CCC(Nc3nc(Nc4ccc5c(c4)nnn5CC4CC4)ncc3Cl)CC2)nc1 [Example 60, 6-(4-((5-chloro-2-((1-(cyclopropylmethyl)-1H-benzo[d][1,2,3]triazol-5-yl)amino)pyrimidin-4-yl)amino)piperidin-1-yl)nicotinonitrile]
3 nM	223 nM		CC(C)(O)c1cnc2cc(Nc3ncc(Cl)c(NC4CCN(c5ccc(C#N)cn5)CC4)n3)ccn12 [Example 68, 6-(4-((5-chloro-2-((3-(2-hydroxypropan-2-yl)imidazo[1,2-a]pyridin-7-yl)amino)pyrimidin-4-yl)amino)piperidin-1-yl)nicotinonitrile]
8 nM	125 nM		CC(C)(O)c1cn2ccc(Nc3ncc(Cl)c(NC4CCN(c5ccc(C#N)cn5)CC4)n3)cc2n1 [Example 70, 6-(4-((5-chloro-2-((2-(2-hydroxypropan-2-yl)imidazo[1,2-a]pyridin-7-yl)amino)pyrimidin-4-yl)amino)piperidin-1-yl)nicotinonitrile]
5 nM	13 nM		CC(C)(O)Cc1cn2cc(Nc3ncc(Cl)c(NC4CCN(c5ccc(C#N)cn5)CC4)n3)ccc2n1 [Example 73, 6-(4-((5-chloro-2-((2-(2-hydroxy-2-methylpropyl)imidazo[1,2-a]pyridin-6-yl)amino)pyrimidin-4-yl)amino)piperidin-1-yl)nicotinonitrile]
4 nM	46 nM		CC(C)(O)Cc1nnc2cc(Nc3ncc(Cl)c(NC4CCN(c5ccc(C#N)cn5)CC4)n3)ccn12 [Example 74, 6-(4-((5-chloro-2-((3-(2-hydroxy-2-methylpropyl)-[1,2,4]triazolo[4,3-a]pyridin-7-yl)amino)pyrimidin-4-yl)amino)piperidin-1-yl)nicotinonitrile]
8 nM	184 nM		CC(C)(O)Cc1nnc2cc(Nc3ncc(Cl)c(NC4CCN(c5ccc(C#N)nn5)CC4)n3)ccn12 [Example 75, 6-(4-((5-chloro-2-((3-(2-hydroxy-2-methylpropyl)-[1,2,4]triazolo[4,3-a]pyridin-7-yl)amino)pyrimidin-4-yl)amino)piperidin-1-yl)pyridazine-3-carbonitrile]
102 nM			CC(C)(O)Cc1nc2ccc(Nc3ncc(Cl)c(NC4CCN(c5ccc(C#N)nn5)CC4)n3)cn2n1 [Example 79, 6-(4-((5-chloro-2-((2-(2-hydroxy-2-methylpropyl)-[1,2,4]triazolo[1,5-a]pyridin-6-yl)amino)pyrimidin-4-yl)amino)piperidin-1-yl)pyridazine-3-carbonitrile]
